# In patent US9265789B2, “Targeting CLPTM1L by RNA interference for treatment and prevention of cancer” (The Medical College of Wisconsin, Inc., priority 2013, dated 2016):
# Legend:
# CLPTM1L transcript = CLPTM1L transcript knockdown by RT-quantitative real-time PCR in Spon8 cells; type: cell-based; conditions: Spon8 mouse lung tumor cells; qPCR normalized to beta-Actin
# Procedure: Spon8 cells were cultured in RPMI1640 plus 2% FBS (Invitrogen, Carlsbad, Calif.). Cells were transduced with lentiviral short-hairpin RNA (shRNA) vectors based on the pLKO.1 vector and designed to specifically target human CLPTM1L transcript (Sigma, St. Louis). Empty vector or vector knocking down CLPTM1L transcript were first packaged in 293T cells (Orbigen, San Diego, Calif.) by transfection with helper plasmids using Lipofectamine LTX (Invitrogen, Carlsbad, Calif.) and then transduced into Spon 8 cells with 8 μg/ml Polybrene (Sigma, St. Louis, Mo.). Media was replaced 24 hours after transduction, and cells were split 1:4 48 hours after transduction. […]
# Patient matched tumor and tumor-adjacent normal RNA samples were obtained from the Tissue Procurement Core at Washington University in St. Louis under protocol approved by the Institutional Review Board at Washington University in St. Louis School of Medicine, Human Research Protection Office. […] Quantitative real-time PCR (qPCR) was conducted using the method as described previously (Chaparro, Wen et al. 2005). […] Quantitative RT-PCR assay was done using the SYBR Green PCR Master Mix (Applied Biosystems, Foster City, Calif.). […] Data were collected and analyzed with Stratagene Mx3000 software. […] Primer set efficiency and linearity was calculated, and normalization was performed in accordance with MIQE guidelines. […]
# Bcl-xL [1] = test: Bcl-xL protein accumulation by western blot in Spon8 cells; type: cell-based, mouse
# Procedure: The indicated cell lines were treated with cisplatin at the indicated concentrations on 6-well plates for 72 hours. Cells were lysed with 100 μl of 1× NP40 lysis buffer containing proteinase inhibitors, sheared 10 times with a 28 gauge needle, spun at 16,000×g for 30 minutes, normalized by protein concentration as determined by the Bradford method, and the supernatant boiled for 5 minutes. 20 μl of normalized lysate was resolved by SDS-PAGE and immunoblotting analyzed with indicated antibodies. The following antibodies were used: rabbit anti-CLPTM1L (Novus Biologicals, Littleton, Colo.), mouse anti-Actin (Santa Cruz Biotechnology, Santa Cruz, Calif.), mouse anti-Bcl2 clone 124 (Dako, Carpinteria, Calif.), rabbit anti-Bax #2774 (Cell Signaling, Boston, Mass.), mouse anti-p53 (Ab-1) (Oncogene, San Diego, Calif.), Bcl-xL-rabbit Bcl2L1 (AbCam, Cambridge, Mass.), rabbit anti-H-Ras (Novus Biologicals, Littleton, Colo.), mouse anti-K-Ras(BD Transduction Labs, Franklin, N.J.), anti-Akt(Cell Signaling, Boston, Mass.), antipAKT(Thr308)(Cell Signaling, Boston, Mass.), rabbit anti-PIK3C3 (Cell Signaling, Boston, Mass.), rabbit anti-BAD(AbCam, Cambridge, Mass.). Quantitation of Western analyses of three independent cultures was done using Image J software available online from the National Institutes of Heath at rsbweb.nih.gov on the World Wide Web.
# [2] = tested on: Spon8 mouse lung tumor cells; test: Viability assay (MTS) after cisplatin treatment; type: cell-based; conditions: 20 μM cisplatin for 48 hours; compared to vector and sh1; p=9.6E-6
# Procedure: Cells stably expressing shRNA vectors as described above were seeded onto 12-well tissue culture dishes at equal densities of approximately 50% in triplicate. After attachment overnight followed by 48 hours of treatment with the indicated concentrations of cisplatin (Sigma, St. Louis, Mo.) dissolved in media. DMSO concentrations in culture media were kept consistent and were at or below 0.08%. Cell viability was measured by Cell Titer 96 Aqueous One Solution Cell Proliferation Assay (MTS) in triplicate. P-values were determined by one-tailed Student's T-Test.
# Bcl-xL [3] = test: Western blotting for Bcl-xL in NIH3T3 cells with K-RasV12 expression; type: cell-based, mouse
# Procedure: (§1) The indicated cell lines were treated with cisplatin at the indicated concentrations on 6-well plates for 72 hours. Cells were lysed with 100 μl of 1× NP40 lysis buffer containing proteinase inhibitors, sheared 10 times with a 28 gauge needle, spun at 16,000×g for 30 minutes, normalized by protein concentration as determined by the Bradford method, and the supernatant boiled for 5 minutes. 20 μl of normalized lysate was resolved by SDS-PAGE and immunoblotting analyzed with indicated antibodies. […] Quantitation of Western analyses of three independent cultures was done using Image J software available online from the National Institutes of Heath at rsbweb.nih.gov on the World Wide Web.
# (§2) NIH3T3 cells acquired within the last 6 months from ATCC were cultured in DMEM 10% FBS to 80% confluence before co-transfecting with the indicated expression and shRNA vectors using Lipofectamine LTX (Invitrogen, Carlsbad, Calif.). […] Images of wells were captured and analyzed by Image J software to count colonies. P-values were determined using a two-tailed Student's T-Test.
# [4] = tested on: phosphorylated (T308) Akt; test: Western blotting for phosphorylated (T308) Akt in NIH3T3 cells with K-RasV12 expression; type: cell-based, mouse; conditions: NIH3T3 cells expressing K-RasV12, CLPTM1L stably depleted
# Procedure: as §1, §2
# 3T3 mouse fibroblasts = test: Transformation assay (morphology, foci) in Ras-transfected 3T3 fibroblasts; type: cell-based
# Procedure: (§3) NIH3T3 cells acquired within the last 6 months from ATCC were cultured in DMEM 10% FBS to 80% confluence before co-transfecting with the indicated expression and shRNA vectors using Lipofectamine LTX (Invitrogen, Carlsbad, Calif.). Cells were split, allowed to attach and placed on puromycin selection for 3 days or until mock transfected cells were dead. Cells were plated at the indicated densities and fed as needed. For whole plate staining, cells were fixed in cold methanol and stained with crystal violet. For anchorage independent growth, cell were suspended in 0.4% agarose in complete growth media and plate over 0.8% bottom agar at 10,000 cells per well (H-Ras) or 20,000 cells per well (K-Ras) of a six-well tissue culture dish in triplicate. Cells were fed twice a week over 4 weeks in culture, and colonies were stained using cell staining reagent and protocol from Millipore's Cell Transformation Detection Assay. Images of wells were captured and analyzed by Image J software to count colonies. P-values were determined using a two-tailed Student's T-Test.
# [5] = tested on: Ras transformed 3T3 cells; test: Soft agar anchorage independent growth assay; type: cell-based, mouse
# Procedure: as §3
# [6] = tested on: oncogenic K-Ras driven lung tumors; test: shRNA/K-Ras LSL-G12D/+ mouse model of lung tumorigenesis; type: in vivo; conditions: for inhibition of tumor number / inhibition of tumor load: vs scrambled shRNA
# Procedure: Mouse experiments were conducted as described by DuPage et al., Nat. Protoc. 4:1064 (2009), with the following modifications. pLKO.1 empty shRNA vector was obtained from Open Biosystems (Foster City, Calif.). Short hairpin inserts were designed to specifically target transcripts. Oligos were ordered from IDT (Coralville, Iowa). Complimentary oligos were heated to 95° C., cooled to room temperature overnight and ligated into digested pLKO.1. Validated constructs used in mouse experiments had the following short-hairpin sequences:
# Vectors were modified by replacing the PGK promoter and puromycin resistance orf with the CMV promoter driving expression of CRE-GFP. CMV promoter was sub-cloned from pLenti CMV GFP Puro plasmid #17448 (Addgene) and CRE-GFP was sub-cloned from pCAG:CRE-GFP plasmid #13776 (Addgene). Virus was packaged in 293T cells and functionally titered by infecting 3TZ cells (LSL-LacZ), which express LacZ upon Cre recombinase activation. Mice were anesthetized with 200 μL Avertin ([…]). 10^^4 or 10^^3 active virus particles in 50 μl of phosphate buffered saline was delivered via intratracheal intubation using a 22-gauge IV catheter under general anesthesia to 10 transgenic mice per group (LSL-K-RasG12D (Mouse Models of Human Cancers Consortium (MMHCC) Strain 01XJ6, Jackson Laboratory #008179 (B6), #008180 (129)). […] The thoracic cavity was surgically opened to expose the lungs. The trachea was cannulated with a 22G catheter and lungs were inflated with Tellyesniczky's solution (70% ethanol, 2% formaldehyde, and 5% acetic acid) at 25 cm of pressure by gravity. Lungs were fixed overnight and the solution was exchanged to 70% ethanol the next day. Lungs were photographed, lobes were separated and cleaned. Tumors were counted and measured with digital calipers. A cutoff for visible tumors of 0.2 mm diameter was used. Tumor volume was determined by the following formula: A=4/3πr^3. P-values were determined using a two-tailed Student's T-Test.
# TERT transcript = TERT transcript knockdown in Spon8 cells; type: cell-based; conditions: Spon8 mouse lung tumor cells
# [7] = high dose group 10^4 functional particles intratracheal, 24 weeks
# [8] = low dose group 10^3 particles, 28 weeks post-infection
Molecule,knockdown of CLPTM1L at the transcript level (CLPTM1L transcript) [%],Bcl-xL expression upon CLPTM1L depletion (Bcl-xL [1]),sensitivity to cisplatin-induced killing (MTS viability) [2],"K-RasV12 induced elevation of Bcl-xL (Bcl-xL [3]; NIH3T3 cells expressing K-RasV12, CLPTM1L stably depleted)","Bcl-xL expression with loss of CLPTM1L (Bcl-xL [3]; NIH3T3 mouse fibroblasts, western blotting)",K-RasV12 induced elevation of phospho-Akt [4],transformed phenotype (foci) on stable co-transfection with H-RasV12 or K-RasV12 (3T3 mouse fibroblasts),morphological changes with shRNA alone compared to vector controls (3T3 mouse fibroblasts; no Ras),"average colonies per well in soft agar ([5]; H-RasV12 expressing 3T3 cells, 10,000 cells per well, control 18 colonies, p<0.03)","inhibition of soft agar colony formation ([5]; K-RasV12 transformed 3T3 cells, 20,000 cells per well, control 56 colonies per well, p<0.02) [%]","average tumor load [6, 7] [mm^3]","average tumor number [6, 7] [tumors per mouse]","inhibition of tumor number ([6]; high dose group, p=0.02) [%]","inhibition of tumor load ([6]; high dose group, p=0.03) [%]","average tumor load [6, 8] [mm^3]","average tumor number [6, 8] [tumors]","inhibition of tumor load ([6]; low dose group, p<0.002) [%]","inhibition of tumor number ([6]; low dose group, p<0.004) [%]",knockdown of TERT at the transcript level (TERT transcript) [%],"tumor number and load compared with scrambled control ([6]; high dose group, p=0.58)"
"shCLP168m: shRNA targeting CLPTM1L, mature sense strand AACTGCATCCAGCCCTATCTG (SEQ ID NO: 4), pLKO.1 lentiviral vector",80,concurrently reduced,increased sensitivity to cisplatin,ablated,decrease in Bcl-xL expression,ablated,no transformed foci were observed,did not demonstrate morphological changes,one,47,3.4,46,60,74,0.01,0.14,98,98,,
"shTERT1: lentiviral shRNA vector targeting TERT (oligos SEQ ID NO: 28/29), used as additional control (nucleic acid) sense: CCGGAAGTCTGCCGTTGCCCAAGAGCTCGAGCTCTTGGGCAACGGCAGACTTTTTTT antisense: AATTAAAAAAACTGCATCCAGCCCTATCTGCTCGAGCAGATAGGGCTGGATGCAGTT",,,,,,,,,,,10.2,122,,,0.41,5,,,50,statistically similar to the control group
